# Patent US5882851A, “Cytochrome P-450 monooxygenases” (Novartis Finance Corporation, priority 1993, dated 1999)
# T1: E. coli-expressed cytochrome P-450TYR (Sorghum bicolor, UniProt Q43135)
# T1 construct: in which the 35 N-terminal amino acids are replaced by the nine N-terminal amino acids from bovine 17α hydroxylase; nine N-terminal amino acids from bovine 17alpha-hydroxylase (replace the 35 N-terminal residues) (N); made in house; host or cells: E. coli JM109, vector pSP19g10L
# T1 sequence (Q43135 whole entry, looked up): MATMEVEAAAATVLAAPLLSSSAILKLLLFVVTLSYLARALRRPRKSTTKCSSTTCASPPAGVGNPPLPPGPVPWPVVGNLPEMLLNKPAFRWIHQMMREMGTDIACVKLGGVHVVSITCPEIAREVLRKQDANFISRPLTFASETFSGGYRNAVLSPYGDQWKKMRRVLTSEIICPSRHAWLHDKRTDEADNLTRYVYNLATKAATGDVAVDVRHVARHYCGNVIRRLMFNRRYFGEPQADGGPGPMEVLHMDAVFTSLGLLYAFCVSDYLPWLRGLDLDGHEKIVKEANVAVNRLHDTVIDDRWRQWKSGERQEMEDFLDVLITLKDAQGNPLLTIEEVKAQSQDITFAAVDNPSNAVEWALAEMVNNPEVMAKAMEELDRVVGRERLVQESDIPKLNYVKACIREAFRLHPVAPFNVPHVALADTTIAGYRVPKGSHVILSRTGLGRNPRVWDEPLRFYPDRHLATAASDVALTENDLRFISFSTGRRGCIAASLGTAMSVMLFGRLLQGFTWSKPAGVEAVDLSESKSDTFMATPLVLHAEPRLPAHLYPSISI
# B1: cytochrome P-450TYR from Sorghum bicolor (L.) Moench (enzyme)
# chain: ATMEVEAAAATVLAAPLLSSSAILKLLLFVVTLSYLARALRRPRKSTTKCSSTTCASPPAGVGNPPLPPGPVPWPVVGNLPEMLLNKPAFRWIHQMMREMGTDIACVKLGGVHVVSITCPEIAREVLRKQDANFISRPLTFASETFSGGYRNAVLSPYGDQWKKMRRVLTSEIICPSRHAWLHDKRTDEADNLTRYVYNLATKAATGDVAVDVRHVARHYCGNVIRRLMFNRRYFGEPQADGGPGPMEVLHMDAVFTSLGLLYAFCVSDYLPWLRGLDLDGHEKIVKEANVAVNRLHDTVIDDRWRQWKSGERQEMEDFLDVLITLKDAQGNPLLTIEEVKAQSQDITFAAVDNPSNAVEWALAEMVNNPEVMAKAMEELDRVVGRERLVQESDIPKLNYVKACIREAFRLHPVAPFNVPHVALADTTIAGYRVPKGSHVILSRTGLGRNPRVWDEPLRFYPDRHLATAASDVALTENDLRFISFSTGRRGCIAASLGTAMSVMLFGRLLQGFTWSKPAGVEAVDLSESKSDTFMATPLVLHAEPRLPAHLYPSISI
# B2: cytochrome P-450TYR: sorghum cytochrome P-450 monooxygenase converting tyrosine to p-hydroxyphenylacetaldehyde oxime, SEQ ID NO: 2 (protein)
# chain: T1 sequence (Q43135 whole entry, looked up)
# Columns and labels:
# cytochrome P450 = test: Photoreversible carbon monoxide inhibition of oxime production in tropaeolum microsomes; assay type: biochemical, Tropaeolum majus; conditions: 60 min
# Procedure: The microsomal reaction mixture consists of 80 μl microsomes (10 mg protein per ml), 10 μl ^14 C-phenylalanine (0.5 μCi, 464 mCi/mmol, Amersham) or ^14 C-tyrosine (0.5 μCi, 450 mCi/mmol, Amersham) and 10 μl NADPH (75 mg/ml). The reaction mixtures are incubated for 1 hour at 37° C. At the end of the incubation period, the reaction mixtures are extracted with 1500 μl ethyl acetate. The ethyl acetate phase is evaporated to dryness, redissolved in a small volume and analyzed.
# The microsomal reaction mixtures are incubated using different experimental conditions. The reaction mixtures are analyzed by HPLC.
# [1] = target: T2, P-450TYR expressed in E. coli (Sorghum bicolor, UniProt Q43135); test: Substrate binding spectra of P-450TYR expressed in E. coli
# T2 construct: in which the 35 N-terminal amino acids are replaced by the nine N-terminal amino acids from bovine 17α hydroxylase; nine N-terminal amino acids from bovine 17alpha-hydroxylase (replace the 35 N-terminal residues) (N); made in house; host or cells: E. coli JM109, vector pSP19g10L
# Description: Cytochrome P-450TYR in the oxidized state has a strong absorption peak at 420 nm, representing the low spin state of the iron of the heme group. The binding of a ligand to the heme group shifts the absorption maximum by changing the spin state of the iron. Binding of tyrosine at the catalytic site of cytochrome P-450TYR induces a change of the spin state of the oxidized iron from low to high spin, and thereby changes the absorption maximum from 420 nm to 390 nm producing a type I spectrum (Jefcoate, Methods in Enzymology 52:258-279, 1978). The following experimental procedure is used to obtain the substrate binding spectrum: two identical cuvettes containing a buffered solution of the isolated cytochrome P-450 are prepared. The substrate of the enzyme is added to the sample cuvette whereas the same volume of buffer is added to the other cuvette. The difference spectrum is then recorded in an SLM-Aminco DW2c spectrophotometer. The absorption difference, A390-420, is proportional to the concentration of cytochrome P-450TYR with a bound substrate at its active site. If a saturating concentration of substrate is added to the sample cuvette, the absorption difference is proportional to the concentration of the substrate specific cytochrome P-450 in the cuvettes. The saturating concentration of the substrate is determined by titrating the cytochrome P-450 sample with increasing amounts of substrate and monitoring A390-420.
# A modified cytocrome P-450TYR, in which the 35 N-terminal amino acids are replaced by the nine N-terminal amino acids from bovine 17α hydroxylase is introduced into the expression vector pSP19g10L which can be obtained from Dr. Henry Barnes (La Jolla, Calif.). This plasmid contains the lac Z promoter fused with the known short leader sequence (g10L) of gene 10 from bacteriophage T7 (Olin et al, 1988). A construct containing the N-terminal amino acids from bovine 17α hydroxylase and a truncated form of the P-450TYR gene is designed using PCR mutagenesis: Oligonucleotide TYROL 1d (5'-CGGGATCCATATGGCTCTGTTATTAGCAGTTTTTCTGTCGTACCTGGCCCG-3'; SEQ ID NO 23) containing a 5' mutant cDNA sequence as well as a BamHI and NdeI restriction site is used together with oligonucleotide TYROL 3 comprising the sequence surrounding the unique BamHI restriction site downstream of the ATG start codon of the cDNA coding for P-450TYR to amplify a modified N-terminal sequence of P-450TYR. The amplification product is cut with NdeI and BamHI restriction enzymes. To introduce a HindIII site immediately downstream of the stop codon of the P-450TYR gene, oligonucleotides TYROL 2 and TYROL 4 are used in a polymerase chain reaction to obtain a C-terminal fragment of the P-450TYR gene comprising a HindIII restriction site immediately downstream of the stop codon. The amplification product is cut with PstI and HindIII restriction enzymes. The complete expression plasmid is constructed by simultaneous ligation of the N-terminal NdeI/BamHI fragment, the BamHI/PstI fragment of the P-450TYR gene and the C-terminal PstI/HindIII fragment into NdeI/HindIII cleaved pSP19g10L vector DNA. The expression vector obtained is transformed into E. coli strain JM109. Transformed E. coli produce 300 nmol to 500 nmol cytochrome P-450TYR per liter cell culture upon growth at 28° C. in the presence of 1 mM isopropyl-β-D-thiogalactopyranoside and at 125 rpm. Expression levels as high as 900 nmol per liter, equivalent to 55 mg P-450TYR per liter, have been obtained. […]
# [2] = target: T3, E. coli-expressed cytochrome P-450TYR (Sorghum bicolor, UniProt Q43135); test: Reconstitution with E. coli-expressed cytochrome P-450TYR and sorghum NADPH cytochrome P450 reductase; assay type: biochemical; conditions: phenylalanine as substrate
# T3 construct: in which the 35 N-terminal amino acids are replaced by the nine N-terminal amino acids from bovine 17α hydroxylase; nine N-terminal amino acids from bovine 17alpha-hydroxylase (replace the 35 N-terminal residues) (N); made in house; host or cells: E. coli JM109, vector pSP19g10L
# Procedure: (§1) 10 μl of the lipid suspension is mixed in a glass vial with 50 μl of the cytochrome P-450TYR (0-1.5 pmol) solution. […] The reaction mixture is subsequently incubated for 1 hour at 30° C. At the end of the incubation period the reaction is stopped by transferring the glass vials onto ice. Radioactively labelled intermediates formed are extracted into 50 μl ehtyl acetate, applied to a silica coated TLC plate and developed using an ethyl acetate/toluene (1:5 v/v) mixture as mobile phase. The resultant product, p-hydroxyphenylacetaldehyde oxime is visualized by autoradiography of the TLC plate. Alternatively, the intermediates are analyzed by reverse-phase HPLC coupled to a Berthold radioactiviy monitor. […] Control samples may be made by omitting either cytochrome P-450 oxidoreductase or NADPH.
# (§2) Reconstitution experiments with E. cole-expressed cytochrome P-450TYR and sorghum NADPH cytochorme P450 reductase in dilaurylpohsphatidylcholine micelles is performed as described in section 5.3. above.
# T3 sequence (Q43135 other isoform, or with tags, fused parts or gaps): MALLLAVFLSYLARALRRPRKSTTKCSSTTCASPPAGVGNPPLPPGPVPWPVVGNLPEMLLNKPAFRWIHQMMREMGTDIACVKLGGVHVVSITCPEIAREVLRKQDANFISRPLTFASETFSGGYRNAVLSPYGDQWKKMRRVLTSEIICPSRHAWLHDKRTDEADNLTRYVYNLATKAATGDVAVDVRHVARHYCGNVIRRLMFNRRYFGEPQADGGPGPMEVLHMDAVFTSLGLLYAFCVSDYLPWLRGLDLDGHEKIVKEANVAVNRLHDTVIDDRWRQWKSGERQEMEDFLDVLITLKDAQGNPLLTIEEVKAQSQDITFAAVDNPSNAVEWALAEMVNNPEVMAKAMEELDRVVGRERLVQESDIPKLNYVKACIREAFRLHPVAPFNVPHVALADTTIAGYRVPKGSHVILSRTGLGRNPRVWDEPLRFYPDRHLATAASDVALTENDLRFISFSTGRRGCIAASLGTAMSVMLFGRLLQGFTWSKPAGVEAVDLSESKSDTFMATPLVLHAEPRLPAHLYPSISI
# glucosinolate production = test: Induction of glucosinolate production in Tropaeolum majus; assay type: in vivo; conditions: 10 mM phenylalanine or 2% ethanol administered to the vermiculate, 24 hours, etiolated seedlings
# Procedure: Seeds of Tropaeolum majus L. cv Empress of India (Dansk Havefroforsyning, Kolding, DK) are allowed to imbibe and germinate in complete darkness for one week at 25° C. In vivo biosynthesis experiments are performed wherein 1 μCi of the tracer ^14 C-labelled phenylalanine is administered to excised dark-grown seedlings for 24 hours followed by boiling of the plant material in 90% methanol and analysis of the extracts by HPLC as described by Lykkesfeldt and Moller, 1993. Prior to administration of the tracer to the excised seedling or leaf, the intact plant is subjected to a potential inducer for 24 hours.
# [3] = target: NADPH-cytochrome P-450 oxidoreductase, purified from Sorghum bicolor (Sorghum bicolor)
# [4] = target: NADPH-cytochrome P-450 oxidoreductase, purified from Sorghum bicolor (Sorghum bicolor); remark: listed apart in the source
# [5] = target: T1, E. coli-expressed cytochrome P-450TYR; test: Reconstitution with E. coli-expressed cytochrome P-450TYR and sorghum NADPH cytochrome P450 reductase; assay type: biochemical; conditions: dilaurylphosphatidylcholine micelles
# Procedure: as §1, §2
# T2 sequence (Q43135 other isoform, or with tags, fused parts or gaps): as above
molecule,measurement,setting,value
"[C-]#[O+] [CO/O2, carbon monoxide]",% inhibition of oxime production,cytochrome P450; with light (450 nm),23%
same,% inhibition of oxime production,cytochrome P450; without light,65%
N[C@@H](Cc1ccccc1)C(=O)O [phenylalanine],type of substrate binding spectrum,[1],type Ispectrum
same,production of the corresponding oxime,[2],do not result in the production of the corresponding oxime
same,increase in glucosinolate production as compared to control experiments with water,glucosinolate production,threefold increase
"modified cytochrome P-450TYR in which the 35 N-terminal amino acids are replaced by the nine N-terminal amino acids from bovine 17α hydroxylase, expressed in E. coli (from UniProt P05185) (enzyme)",oxime production by the enzyme reconstituted in dilaurylphosphatidylcholine micelles (turnover rate) (nmol oxime per nmol P-450TYR per minute),[3],349
B1,conversion of L-tyrosine to p-hydroxyphenyl-acetaldehyde oxime by the enzyme reconstituted in lipid micelles (turn-over number),[4],198 min⁻¹
B2,Turnover rate,[5],349 nmol oxime per nmol P-450TYR per minute
